Some test systems named below: MALME-3M melanoma; EKVX NSCLC; SK-MEL-5 melanoma; UO-31 renal; UACC-62 melanoma; SF-539 CNS; MCF7 breast; HL-60(TB) leukemia; MDA-MB-231 breast; RPMI-8226 leukemia.
Common to all, as to assay: growth of human tumour cells (NCI), 48 h

Here are results for nine compounds from PubChem BioAssay (NCI).

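Each compound was tested at five concentrations against cells in 96-well plates for 48 hours. At the GI50, growth is halved. TGI: concentration producing complete growth inhibition.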

In the case of `CO[C@H]1/C=C/O[C@@]2(C)Oc3c(C)c(O)c4c(O)c(c(/C=N/N5C(C)CN(Cc6ccc(C#N)cc6)CC5C)c(O)c4c3C2=O)NC(=O)/C(C)=C\C=C\[C@H](C)[C@H](O)[C@@H](C)[C@@H](O)[C@@H](C)[C@H](OC(C)=O)[C@@H]1C` (stereo not given in full), the GI50 is 8.56 µM with MALME-3M melanoma; 4.26 µM in the assay on EKVX NSCLC; 5.91 µM in the assay with SK-MEL-5 melanoma; 3.64 µM with UO-31 renal; 3.88 µM with UACC-62 melanoma; 6.22 µM in the assay with SF-539 CNS. Moreover, the results for the GI50 in the assay with MCF7 breast, in the assay on HL-60(TB) leukemia and in the assay on MDA-MB-231 breast were 6.37 µM, 7.19 µM and 7.49 µM, respectively. Also, the TGI in the assay with MALME-3M melanoma was determined as 20.5 µM; in the assay on EKVX NSCLC, 39.4 µM; with SK-MEL-5 melanoma it was 12.3 µM; in the assay with UO-31 renal it was 10.5 µM; in the assay with UACC-62 melanoma, 10.4 µM; in the assay with SF-539 CNS, 13 µM. Also, the values for the TGI with MCF7 breast, with HL-60(TB) leukemia and in the assay with MDA-MB-231 breast were 24.3 µM, 18.6 µM and 14.9 µM, respectively.
In the case of `COc1ccc2cc(C(=O)N3CCC([C@@H](C)C(=O)NCc4ccc5c(c4)OCO5)CC3)[nH]c2c1`, the GI50 in the assay with MALME-3M melanoma was above 100 µM; in the assay on EKVX NSCLC, above 100 µM; with SK-MEL-5 melanoma, above 100 µM; in the assay on UO-31 renal, above 100 µM; with UACC-62 melanoma it was 28.1 µM; with RPMI-8226 leukemia it was above 100 µM. Moreover, the GI50 with SF-539 CNS, in the assay with MCF7 breast, in the assay on HL-60(TB) leukemia and with MDA-MB-231 breast was above 100 µM throughout. Moreover, the TGI with MALME-3M melanoma, in the assay with EKVX NSCLC, in the assay on SK-MEL-5 melanoma, in the assay with UO-31 renal, in the assay with UACC-62 melanoma and with RPMI-8226 leukemia was above 100 µM throughout. Besides, the TGI in the assay on SF-539 CNS, with MCF7 breast, in the assay on HL-60(TB) leukemia and in the assay with MDA-MB-231 breast was above 100 µM each time.
Consider `O=C(O)c1nn(-c2ccc(Cl)cc2)c2c1C(=O)c1ccccc1C2=O`, for which the TGI is 28.1 µM in the assay with MALME-3M melanoma; above 100 µM with EKVX NSCLC; 53.6 µM in the assay with SK-MEL-5 melanoma; above 100 µM in the assay with UO-31 renal; above 100 µM with UACC-62 melanoma; above 100 µM in the assay on RPMI-8226 leukemia. The TGI with SF-539 CNS was 67.4 µM; with MCF7 breast, above 100 µM; with HL-60(TB) leukemia, above 100 µM; in the assay on MDA-MB-231 breast it was above 100 µM.
In the case of `COc1nc2c(c(=O)n1C)CN(c1ccccc1)C(=O)CN2C`, the GI50 was 46.7 µM with MALME-3M melanoma; 19.9 µM in the assay with EKVX NSCLC; 26.9 µM in the assay on SK-MEL-5 melanoma; 5.73 µM in the assay on UO-31 renal; 45.8 µM in the assay with UACC-62 melanoma; 72.6 µM in the assay with RPMI-8226 leukemia. Also, the GI50 in the assay on SF-539 CNS is above 100 µM; with MCF7 breast, 6.25 µM; in the assay with HL-60(TB) leukemia, 49.8 µM; in the assay with MDA-MB-231 breast, 41.7 µM. The TGI with MALME-3M melanoma, with EKVX NSCLC, with SK-MEL-5 melanoma, with UO-31 renal, in the assay on UACC-62 melanoma and in the assay with RPMI-8226 leukemia was above 100 µM each time. For the same compound, the TGI in the assay with SF-539 CNS, in the assay on MCF7 breast, in the assay on HL-60(TB) leukemia and with MDA-MB-231 breast was above 100 µM throughout.
In the case of `CN1CCN(c2ccncc2S(=O)(=O)N2CCN(C)CC2)CC1`, the TGI in the assay on MALME-3M melanoma, with EKVX NSCLC, in the assay with SK-MEL-5 melanoma, in the assay with UO-31 renal, in the assay on UACC-62 melanoma and in the assay with RPMI-8226 leukemia was above 100 µM throughout. For the same compound, the TGI in the assay with SF-539 CNS, with MCF7 breast and in the assay with MDA-MB-231 breast was above 100 µM each time.
For the compound `C#Cc1cccc(Nc2nc(C)nc3cc(NC(=O)CCl)ccc23)c1`, the GI50 was 0.465 µM with MALME-3M melanoma; 3.13 µM with EKVX NSCLC; 3.56 µM in the assay on SK-MEL-5 melanoma; 3.24 µM in the assay with UO-31 renal; 1.01 µM in the assay with UACC-62 melanoma; 1.12 µM in the assay with RPMI-8226 leukemia. The GI50 in the assay with SF-539 CNS is 3.34 µM; in the assay with MCF7 breast, 0.836 µM; with HL-60(TB) leukemia, 2.63 µM; in the assay on MDA-MB-231 breast it was 0.886 µM. In addition, the TGI with MALME-3M melanoma stood at 1.11 µM; in the assay on EKVX NSCLC, 7.62 µM; in the assay with SK-MEL-5 melanoma, 7.04 µM; in the assay on UO-31 renal, 6.74 µM; with UACC-62 melanoma it was 3.81 µM; with RPMI-8226 leukemia, 4.75 µM. Moreover, the TGI is 6.6 µM with SF-539 CNS, 4.05 µM with MCF7 breast, 7.67 µM in the assay with HL-60(TB) leukemia and 3.92 µM in the assay on MDA-MB-231 breast.
Consider `COc1ccc(-c2oc3ncnc(N)c3c2-c2ccc(NC(=O)Nc3cc(C(F)(F)F)ccc3F)cc2)cc1`, for which the GI50 in the assay on MALME-3M melanoma is 1.81 µM; in the assay with EKVX NSCLC it was 1.59 µM; with SK-MEL-5 melanoma, 1.52 µM; in the assay with UO-31 renal it was 0.706 µM; in the assay with UACC-62 melanoma, 0.956 µM; with RPMI-8226 leukemia, 2.26 µM. Besides, the GI50 in the assay with SF-539 CNS is 1.55 µM; in the assay with MCF7 breast, 0.675 µM; in the assay with HL-60(TB) leukemia, 2.58 µM; with MDA-MB-231 breast, 1.1 µM. For the same compound, the TGI with MALME-3M melanoma came out at 6.22 µM; in the assay with EKVX NSCLC, 9.74 µM; in the assay on SK-MEL-5 melanoma it was 4.41 µM; in the assay with UO-31 renal, 5.01 µM; with UACC-62 melanoma, 4.23 µM; in the assay on RPMI-8226 leukemia, 10.1 µM. For the same compound, the TGI turned out to be 5.41 µM in the assay on SF-539 CNS, 3.21 µM in the assay with MCF7 breast, 9.31 µM in the assay with HL-60(TB) leukemia and 6.17 µM with MDA-MB-231 breast.
As for `CC(=O)CCc1ccc(Oc2c3ccccc3nc3occc23)cc1`, the GI50 with UO-31 renal is 22.9 µM; in the assay on RPMI-8226 leukemia it was 13.8 µM; in the assay on MCF7 breast it was 21.3 µM; with HL-60(TB) leukemia, 8.67 µM; in the assay on MDA-MB-231 breast, 25.5 µM. Also, the TGI in the assay on UO-31 renal is above 100 µM; in the assay on RPMI-8226 leukemia it was 53.9 µM; in the assay with MCF7 breast, 46.3 µM; in the assay with HL-60(TB) leukemia it was 74.5 µM; in the assay on MDA-MB-231 breast it was above 100 µM.
As to `N#Cc1ccc2[nH]cc(Cc3c[nH]c4ccc(C#N)cc34)c2c1`, the GI50 in the assay on MALME-3M melanoma was 6.98 µM; in the assay with EKVX NSCLC it was 14.9 µM; in the assay on SK-MEL-5 melanoma, 8.7 µM; in the assay with UO-31 renal, 8.64 µM; with UACC-62 melanoma it was 8.42 µM; in the assay on RPMI-8226 leukemia, 13.9 µM. Moreover, the GI50 in the assay on SF-539 CNS was 8.64 µM; in the assay on MCF7 breast, 15.2 µM; in the assay on MDA-MB-231 breast it was 10.3 µM. Also, the TGI is 21.1 µM in the assay on MALME-3M melanoma; above 50 µM with EKVX NSCLC; 17.7 µM with SK-MEL-5 melanoma; 20.3 µM in the assay on UO-31 renal; 20.1 µM in the assay on UACC-62 melanoma; 49.7 µM in the assay on RPMI-8226 leukemia. The TGI in the assay with SF-539 CNS is 16.9 µM; with MCF7 breast it was above 50 µM; with MDA-MB-231 breast, 25.1 µM.
